The record followed here is ChEMBL document CHEMBL4665640, “Structure-Activity Relationship Studies of 3- or 4-Pyridine Derivatives of DS-6930” (ACS Med Chem Lett, 2019).

A short description of series [1]: Microsomal stability in human liver microsomes assessed as parent compound remaining after 30 mins. Conditions: read-out: Stabilty. It counts as ADME, Microsome.
A short description of series [2]: 1-octanol/phosphate buffer distribution coefficient, log D of the compound at pH 7.4 measured after 30 mins by HPLC-LC/MS based shake flask method. Type of series: physicochemical.
Series [3] in a line: Microsomal stability in rat liver microsomes assessed as parent compound remaining after 30 mins. It counts as ADME, Microsome. Conditions: read-out: Stabilty.
Series [4] is described as follows: Microsomal stability in monkey liver microsomes assessed as parent compound remaining after 30 mins. Conditions: rhesus monkey, read-out: Stabilty. Type of series: ADME, Macaca mulatta, Microsome.
The nature of series [5]: Clearance in cynomolgus monkey at 1 mg/kg, iv by LC-MS/MS analysis. It counts as ADME, organism-based, Macaca fascicularis. Conditions: in vivo.
Series [6] can be described thus: Bioavailability in cynomolgus monkey at 1 mg/kg, iv by LC-MS/MS analysis. Type of series: ADME, organism-based, Macaca fascicularis. Conditions: in vivo.
Series [7] in a line: AUClast in cynomolgus monkey at 3 mg/kg, po by LC-MS/MS analysis. It counts as ADME, organism-based, Macaca fascicularis. More on the design: time 0 - last, route oral, dose 3 mg/kg. Conditions: in vivo.
Series [8] is described as follows: Cmax in cynomolgus monkey at 3 mg/kg, po by LC-MS/MS analysis. More on the design: route oral, dose 3 mg/kg. It counts as ADME, organism-based, Macaca fascicularis. Conditions: in vivo.
Series [9] in a line: Volume of distribution at steady state in cynomolgus monkey at 1 mg/kg, iv by LC-MS/MS analysis. Type of series: ADME, organism-based, Macaca fascicularis. Conditions: in vivo, read-out: Vdss.
Series [10] is described as follows: Half life in cynomolgus monkey at 3 mg/kg, po by LC-MS/MS analysis. It counts as ADME, organism-based, Macaca fascicularis. Conditions: in vivo.
Series [11] can be described thus: Tmax in cynomolgus monkey at 3 mg/kg, po by LC-MS/MS analysis. Type of series: ADME, organism-based, Macaca fascicularis. Conditions: in vivo.
Series [12] in a line: Clearance in mouse at 1 mg/kg, iv by LC-MS/MS analysis. Type of series: ADME, organism-based. Conditions: in vivo.
Series [13] is described as follows: Volume of distribution at steady state in mouse at 1 mg/kg, iv by LC-MS/MS analysis. Conditions: in vivo, read-out: Vdss. It counts as ADME, organism-based.
The nature of series [14]: AUClast in rat at 3 mg/kg, po by LC-MS/MS analysis. It counts as ADME, organism-based. Set-up: route oral, time 0 - last, dose 3 mg/kg. Conditions: in vivo.
Series [15] in a line: Bioavailability in rat at 1 mg/kg, iv by LC-MS/MS analysis. Type of series: ADME, organism-based. Conditions: in vivo.
Series [16] in a line: Half life in rat at 3 mg/kg, po by LC-MS/MS analysis. It counts as ADME, organism-based. Conditions: in vivo.
Series [17] is described as follows: Half life in mouse at 3 mg/kg, po by LC-MS/MS analysis. Type of series: ADME, organism-based. Conditions: in vivo.
The nature of series [18]: Clearance in rat at 1 mg/kg, iv by LC-MS/MS analysis. It counts as ADME, organism-based. Conditions: in vivo.
Series [19] can be described thus: Bioavailability in mouse at 1 mg/kg, iv by LC-MS/MS analysis. It counts as ADME, organism-based. Conditions: in vivo.
Series [20] in a line: Tmax in mouse at 3 mg/kg, po by LC-MS/MS analysis. It counts as ADME, organism-based. Conditions: in vivo.
A short description of series [21]: AUClast in mouse at 3 mg/kg, po by LC-MS/MS analysis. Set-up: time 0 - last, route oral, dose 3 mg/kg. Type of series: ADME, organism-based. Conditions: in vivo.
Series [22] can be described thus: Cmax in rat at 3 mg/kg, po by LC-MS/MS analysis. Type of series: ADME, organism-based. Set-up: route oral, dose 3 mg/kg. Conditions: in vivo.
Series [23] can be described thus: Volume of distribution at steady state in rat at 1 mg/kg, iv by LC-MS/MS analysis. Conditions: in vivo, read-out: Vdss. Type of series: ADME, organism-based.
Series [24] in a line: Cmax in mouse at 3 mg/kg, po by LC-MS/MS analysis. It counts as ADME, organism-based. More on the design: route oral, dose 3 mg/kg. Conditions: in vivo.
Series [25] is described as follows: Tmax in rat at 3 mg/kg, po by LC-MS/MS analysis. Type of series: ADME, organism-based. Conditions: in vivo.

Regarding `CCOc1cc(Oc2ccnc(OC)c2)cc2c1nc(COc1cccc(C(=O)O)c1)n2C`, the remaining at 0.5 h in series [1] is 100%. The logD at 0.5 h in series [2] was determined as 1.7.

Consider `CCCOc1cc(Oc2ccc(C)nc2C)cc2c1nc(COc1cccc(C(=O)O)c1)n2C`, for which the logD at 0.5 h in [2] was 2.2.

On to `COc1cc(Oc2cc(C)c3nc(COc4cccc(C(=O)O)c4)n(C)c3c2)ccn1`, for which the remaining at 0.5 h in series [1] is 100%. In addition, the logD at 0.5 h in series [2] came out at 1.7.

`Cc1ccc(Oc2ccc3nc(COc4cccc(C(=O)O)c4)n(C)c3c2C)c(C)n1` yielded a logD at 0.5 h in series [2] of 1.8.

For the compound `CCOc1cc(Oc2ccc3nc(COc4cccc(C(=O)O)c4)n(C)c3c2)ccn1`, in series [1], the remaining at 0.5 h turned out to be 94%. The same compound showed a logD at 0.5 h in series [2] of 1.8.

Regarding `COc1nc(C)ccc1Oc1ccc2nc(COc3cccc(C(=O)O)c3)n(C)c2c1`, the logD at 0.5 h in series [2] worked out at 1.4.

In [2], `COc1cc(Oc2ccc(C)nc2C)cc2c1nc(COc1cccc(C(=O)O)c1)n2C` gave a logD at 0.5 h of 1.2.

Compound `COc1ccc(Oc2ccc3nc(COc4cccc(C(=O)O)c4)n(C)c3c2)c(C)n1` came in with a logD at 0.5 h in series [2] of 1.7.

`Cc1cc(Oc2ccc3nc(COc4cccc(C(=O)O)c4)n(C)c3c2)ccn1`: in series [1], the remaining at 0.5 h amounted to 100%. In addition, the logD at 0.5 h in series [2] was 0.9.

Consider `Cc1ccc(Oc2cc(C)c3nc(COc4cccc(C(=O)O)c4)n(C)c3c2)c(C)n1`, for which the remaining at 0.5 h in series [1] turned out to be 100%. The logD at 0.5 h in [2] was 1.7.

Turning to `Cn1c(COc2cccc(C(=O)O)c2)nc2ccc(Oc3cccnc3)cc21`, in series [1], the remaining at 0.5 h was 100%. In series [2], the logD at 0.5 h came to 0.5.

For the compound `Cc1cnc(Oc2cc(OC(C)C)c3nc(COc4cccc(C(=O)O)c4)n(C)c3c2)c(C)c1`, the remaining at 0.5 h in series [1] is 96%; in series [3], 13%; in [4], 84%. Also, the logD at 0.5 h in [2] was found to be 2.

Compound `COc1ccc(Oc2ccc3nc(COc4cccc(C(=O)O)c4)n(C)c3c2)cn1` yielded a logD at 0.5 h in series [2] of 1.3.

In turn, `Cc1cnc(Oc2ccc3nc(COc4cccc(C(=O)O)c4)n(C)c3c2)c(C)c1` showed a clearance in series [5] of 2.06 mL/min/kg. Moreover, the remaining at 0.5 h in series [4] came to 80%. This compound also registered a bioavailability in series [6] of 89%.

In series [2], `COc1cncc(Oc2ccc3nc(COc4cccc(C(=O)O)c4)n(C)c3c2)c1` displayed a logD at 0.5 h of 0.9.

With `Cc1ccc(Oc2ccc3nc(COc4cccc(C(=O)O)c4)n(C)c3c2)cn1`, the remaining at 0.5 h in series [1] came out at 87%. Also, in series [2], the logD at 0.5 h was found to be 0.8.

As to `CCOc1cc(Oc2ncc(C)cc2C)cc2c1nc(COc1cccc(C(=O)O)c1)n2C`, the remaining at 0.5 h in series [1] was determined as 100%. This compound had a logD at 0.5 h in series [2] of 1.7.

Regarding `COc1cc(Oc2ccc3nc(COc4cccc(C(=O)O)c4)n(C)c3c2)cc(C)n1`, the remaining at 0.5 h in series [1] was 96%; in [3] it was 96%; in series [4], 85%. The compound also displayed a logD at 0.5 h in series [2] of 1.7.

With `Cc1ccc(Oc2ccc3nc(COc4cccc(C(=O)O)c4)n(C)c3c2)c(C)n1`, the remaining at 0.5 h in series [1], in series [3] and in series [4] was 100% each time. The compound further had a logD at 0.5 h in series [2] of 1.3.

As to `Cc1ncccc1Oc1ccc2nc(COc3cccc(C(=O)O)c3)n(C)c2c1`, in series [1], the remaining at 0.5 h was 98%. Also, the logD at 0.5 h in [2] was found to be 1.

With `COc1cc(Oc2ccc3nc(COc4cccc(C(=O)O)c4)n(C)c3c2F)ccn1`, in series [1], the remaining at 0.5 h was found to be 97%. Further, in [2], the logD at 0.5 h amounted to 1.7.

Regarding `COc1cc(Oc2ccc3nc(COc4cccc(C(=O)O)c4)n(C)c3n2)cc(C)n1`, the values for the remaining at 0.5 h in series [1], in series [3] and in series [4] were 91%, 98% and 100%, respectively. For the same compound, the clearance in [5] is 2.08 mL/min/kg. Further, the AUC(0-t) in [7] came out at 5120 ng·h/mL. Also, the logD at 0.5 h in series [2] came out at 1.2. This compound yielded a Cmax in series [8] of 500 ng/mL. Besides, the Vd in series [9] came to 0.35 L/kg. This compound also showed a half-life in series [10] of 7.3 h. Besides, the Tmax in series [11] amounted to 4.5 h. For the same compound, the bioavailability in series [6] came to 18%.

For `COc1ncc(Oc2ccc3nc(COc4cccc(C(=O)O)c4)n(C)c3c2)cc1C`, the remaining at 0.5 h in [1] turned out to be 100%; in series [3], 82%; in series [4], 98%. For the same compound, the logD at 0.5 h in series [2] is 2.

As for `Cc1ccncc1Oc1ccc2nc(COc3cccc(C(=O)O)c3)n(C)c2c1`, in [1], the remaining at 0.5 h came to 100%. This compound also showed a logD at 0.5 h in series [2] of 0.8.

With `CCOc1cc(Oc2ccc(C)nc2C)cc2c1nc(COc1cccc(C(=O)O)c1)n2C`, the remaining at 0.5 h in series [1] turned out to be 100%. In [2], this compound showed a logD at 0.5 h of 1.6.

Turning to `COc1cc(Oc2cc(OC(C)C)c3nc(COc4cccc(C(=O)O)c4)n(C)c3c2)ccn1`, the remaining at 0.5 h stood at 97% in [1], 91% in series [3] and 94% in [4]. Further, in series [2], the logD at 0.5 h turned out to be 2.

The compound `Cc1cncc(Oc2ccc3nc(COc4cccc(C(=O)O)c4)n(C)c3c2)c1` came in with a logD at 0.5 h in [2] of 1.

Take `Cc1cc(Oc2ccc3nc(COc4cccc(C(=O)O)c4)n(C)c3c2)cc(C)n1`: in [2], the logD at 0.5 h stood at 1.

`Cc1ccc(Oc2ccc3nc(COc4cccc(C(=O)O)c4)n(C)c3c2F)c(C)n1`: the remaining at 0.5 h in series [1], in series [3] and in series [4] was 100% each time. Besides, the clearance was 0.4 mL/min/kg in series [5], 4.91 mL/min/kg in series [12] and 1.29 mL/min/kg in series [18]. Also, the figures for the AUC(0-t) in [7], in series [14] and in series [21] were 128000 ng·h/mL, 28000 ng·h/mL and 2070 ng·h/mL, respectively. For the same compound, the Vd is 0.62 L/kg in [13], 0.15 L/kg in series [9] and 0.27 L/kg in [23]. The figures for the bioavailability in series [15], in series [19] and in [6] were 74%, 21% and 76%, respectively. Moreover, the half-life in [16] is 3.45 h; in series [17], 4.35 h; in series [10], 9.34 h. Further, in series [2], the logD at 0.5 h was 1.6. Besides, the Cmax in series [8] came out at 28800 ng/mL; in series [22], 3490 ng/mL; in series [24], 1290 ng/mL. Also, the Tmax in series [20] came out at 0.5 h; in series [11], 0.5 h; in [25], 2.25 h.

`Cn1c(COc2cccc(C(=O)O)c2)nc2ccc(Oc3ccnc(Cl)c3)cc21` returned a logD at 0.5 h in series [2] of 1.1.

With `Cc1ccc(Oc2cc(OC(C)C)c3nc(COc4cccc(C(=O)O)c4)n(C)c3c2)c(C)n1`, the figures for the remaining at 0.5 h in [1], in series [3] and in [4] were 91%, 65% and 81%, respectively. The compound further returned a logD at 0.5 h in series [2] of 1.9.

For the compound `COc1cc(Oc2ccc3nc(COc4cccc(C(=O)O)c4)n(C)c3c2)ccn1`, the remaining at 0.5 h in [1] stood at 98%; in series [3], 100%; in series [4], 100%. The compound also came in with a logD at 0.5 h in [2] of 1.3.

In the case of `CCc1cc(Oc2ccc3nc(COc4cccc(C(=O)O)c4)n(C)c3c2)ccn1`, the remaining at 0.5 h in series [1] was 88%. This compound returned a logD at 0.5 h in series [2] of 1.3.

For the compound `COc1ncccc1Oc1ccc2nc(COc3cccc(C(=O)O)c3)n(C)c2c1`, the logD at 0.5 h in series [2] came out at 0.9.
